In article PMC10967572, “Induction of Oxidative Stress and Ferroptosis in Triple-Negative Breast Cancer Cells by Niclosamide via Blockade of the Function and Expression of SLC38A5 and SLC7A11” (Antioxidants, 2024):

What was measured:
MB231 and TXBR100 cells [1] = test: Cellular iron assay (Ferro-orange); assay type: cell-based, human; conditions: niclosamide 5 μM, 30 min
Experimental: (§1) Lipid radical (ferroptosis) assay and iron assay were performed as follows. Cells were cultured on a 25 mm glass coverslip until they reached 60–70% confluency (~48 h). At the time of the experiment, cells were washed with NaCl buffer, pH 7.5 and then incubated with 1 µM of LipiRadical Green (a lipid radical detection reagent, FDV-0042, Funakoshi, Tokyo, Japan) or Ferro-orange (an iron detection probe, F374, Dojindo, Rockville, MD, USA) in NaCl buffer, pH 7.5 for 20 min and then washed with NaCl buffer, pH 7.5. To analyze the effects of modifiers of iron levels and lipid peroxidation, the cells were co-treated with the modifiers and the respective fluorescent probe for 20 min and then washed. The glass coverslip containing the cells was then probed under an inverted microscope. The fluorescence imaging was captured using a Nikon T1-E microscope with A1 confocal super-resolution module (Nikon, Dallas, TX, USA), with a 60× objective, at 488 nm. The images represent a maximum projection intensity derived from a Z-stack. The fluorescence quantification was performed by measuring the corrected total cell fluorescence (CTCF) using Image J (version: 2.14.0/1.54f) and the following formula; CTCF = (integrated density) − (area of cell of interest) × (mean fluorescence of background).

MB231 and TXBR100 cells [2] = test: Reactive oxygen species assay (DCFH-DA); assay type: cell-based, human; conditions: niclosamide 2.5 and/or 5 μM, 24 h
Experimental: The probe of DCFH-DA was used to measure ROS. Briefly, cells were grown in a 96-well plate and then incubated with DCFH-DA (10 µM) at 37 °C for 30 min in dark. At the end of the incubation, cells were treated with different concentrations of niclosamide. Fluorescence intensity was monitored with a Microplate Reader (Glomax multi-detection system, Promega, Madison, WI, USA) at the excitation and emission wavelengths of 485 and 528 nm, respectively. Cellular fluorescence levels were expressed as % of control group (i.e., no treatment with niclosamide).

SLC7A11 = target: T1, SLC7A11 (Homo sapiens, UniProt Q9UPY5); test: Direct inhibition of SLC7A11 transport activity ([3H]-glutamate uptake) in TNBC cells; assay type: cell-based
T1 construct: endogenous in cells; host or cells: TNBC cell lines MB231, TXBR100 and MB453
T1 sequence (Q9UPY5 1-501): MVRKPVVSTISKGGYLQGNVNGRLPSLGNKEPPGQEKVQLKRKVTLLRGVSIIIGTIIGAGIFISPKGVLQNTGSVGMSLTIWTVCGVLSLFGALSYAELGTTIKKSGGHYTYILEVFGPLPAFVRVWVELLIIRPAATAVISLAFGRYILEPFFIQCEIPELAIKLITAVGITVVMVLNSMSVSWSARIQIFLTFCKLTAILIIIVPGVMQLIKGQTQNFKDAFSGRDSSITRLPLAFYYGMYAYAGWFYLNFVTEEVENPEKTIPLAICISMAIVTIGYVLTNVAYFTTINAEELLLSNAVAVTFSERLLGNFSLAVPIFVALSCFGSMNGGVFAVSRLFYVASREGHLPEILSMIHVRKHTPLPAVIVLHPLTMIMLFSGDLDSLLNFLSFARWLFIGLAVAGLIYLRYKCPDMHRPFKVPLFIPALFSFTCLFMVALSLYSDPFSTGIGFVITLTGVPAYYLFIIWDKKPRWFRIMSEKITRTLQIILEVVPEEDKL
T1 sequence (P08195 1-529 partner): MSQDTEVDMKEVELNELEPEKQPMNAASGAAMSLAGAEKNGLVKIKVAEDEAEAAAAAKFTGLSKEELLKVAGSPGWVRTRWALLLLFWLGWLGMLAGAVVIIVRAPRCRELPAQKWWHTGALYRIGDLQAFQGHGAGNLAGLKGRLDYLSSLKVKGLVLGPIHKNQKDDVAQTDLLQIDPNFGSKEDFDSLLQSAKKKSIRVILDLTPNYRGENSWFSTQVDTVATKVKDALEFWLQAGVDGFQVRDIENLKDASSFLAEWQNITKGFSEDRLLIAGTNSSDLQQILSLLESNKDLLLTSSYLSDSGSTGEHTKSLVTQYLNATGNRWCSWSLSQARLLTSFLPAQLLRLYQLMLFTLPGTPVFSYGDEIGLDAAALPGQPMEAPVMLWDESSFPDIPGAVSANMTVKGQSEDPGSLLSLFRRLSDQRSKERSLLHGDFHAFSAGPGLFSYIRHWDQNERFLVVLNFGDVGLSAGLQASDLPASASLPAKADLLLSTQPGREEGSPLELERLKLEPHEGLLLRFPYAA
Experimental: However, we routinely measure the activity of this transporter by cellular uptake of [^3H]-glutamate under Na^+-free conditions. Under these conditions, SLC7A11 mediates the cellular entry of [^3H]-glutamate in exchange for intracellular unlabeled glutamate. […] Non-carrier-mediated uptake (i.e, diffusional component) was determined by measuring the uptake of [^3H]-glutamate in the presence of excess unlabeled glutamate (5 mM). The transport activity of SLC7A11 was calculated by subtracting the diffusional component from total uptake.
Confluent cultures were used for uptake measurements.

[3] = test system: MB231 cells and TXBR100 cells; test: Lipid radical (ferroptosis) assay with LipiRadical Green; assay type: cell-based, human; conditions: niclosamide 5 μM; MB231 30 min, TXBR100 2 h
Experimental: as §1

O=C(Nc1ccc([N+](=O)[O-])cc1Cl)c1cc(Cl)ccc1O [niclosamide]
cellular iron levels (MB231 and TXBR100 cells [1]): increased | ROS levels (MB231 and TXBR100 cells [2]): increase | affinity for SLC7A11 relative to experimental value known for erastin (SLC7A11; niclosamide IC50 vs erastin literature value): at least three-to-four times greater | IC50 (SLC7A11; three TNBC cell lines (MB231, TXBR100, MB453), niclosamide present only during uptake, Na+-free buffer pH 7.5): ~300 nM | ferroptosis (lipid radical fluorescence) [3]: induced ferroptosis
